Data from patent US3966701A, “Fibrinogen peptide derivatives” (The Dow Chemical Company, priority 1973, dated 1976).
Where a SMILES comes first, the peptide text is derived from it. The star is where a group is joined. Boc = CC(C)(C)OC(=O)*; OBn = c1ccc(CO*)cc1

Assays:
[1] = tested on: thrombin; experiment: in vitro plasma recalcification time (PRT): calcium ions added to oxalated plasma, clotting time measured; assay type: biochemical, dog
Protocol: The plasma recalcification time (PRT) was also used in an in vitro test for measuring thrombin inhibition wherein exogenous calcium ions were added to oxalated plasma (the system makes its thrombin in situ), and measuring clotting time in the presence of the compounds.
0.2 ml. oxalated dog plasma
0.1 ml. Barbital buffer saline containing test compound
0.1 ml. oxalated dog plasma
0.2 ml. Barbital buffer saline containing test compound

[2] = tested on: thrombin; experiment: in vitro thrombin time (TT): exogenous thrombin added to oxalated plasma, clotting time measured; assay type: biochemical; conditions: oxalated dog plasma, thrombin 1 unit/ml, control 15 sec
Protocol: Their anticoagulant activity was determined by measuring thrombin time (TT) utilizing an in vitro test wherein exogenous thrombin is added to oxalated plasma and clotting time is measured in the presence of the test compound.
^a Clotting mixture: 0.2 ml. oxalated dog plasma, 0.1 ml. barbital
buffer containing peptide and 0.1 ml. thrombin (1 unit/ml.)

[3] = 0.25 mg/ml, clotting mixture (a), 0.2 ml oxalated dog plasma, control 66 sec
[4] = 0.5 mg/ml, clotting mixture (a), 0.2 ml oxalated dog plasma, control 66 sec
[5] = 1.0 mg/ml, clotting mixture (a), 0.2 ml oxalated dog plasma, control 66 sec
[6] = 1.5 mg/ml, clotting mixture (a), 0.2 ml oxalated dog plasma, control 66 sec

## N-Benzyloxycarbonyl-L-prolyl-L-arginine Benzyl Ester p-Toluenesulfonate Methanolate [Example 5]
[1]; 0.25 mg/ml, clotting mixture (b), 0.1 ml oxalated dog plasma, control 115 sec
  PRT (average): 240 s
[1]; 0.5 mg/ml, clotting mixture (b), 0.1 ml oxalated dog plasma, control 115 sec
  PRT (average): 270 s
[1]; 1.0 mg/ml, clotting mixture (b), 0.1 ml oxalated dog plasma, control 115 sec
  PRT (average): 345 s
[1]; 2 mg/ml, clotting mixture (b), 0.1 ml oxalated dog plasma, control 115 sec
  PRT (average): 435 s

## Glycyl-L-Prolyl-L-Arginine Benzyl Ester p-Toluenesulfonate Trifluoroacetate [Example 4]
[2]; 0.125 mg/ml peptide
  Thrombin Times (sec) at Peptide Concentrations (mg/ml): 19 s
[2]; 0.25 mg/ml peptide
  Thrombin Times (sec) at Peptide Concentrations (mg/ml): 26 s
[2]; 0.5 mg/ml peptide
  Thrombin Times (sec) at Peptide Concentrations (mg/ml): 44 s
[2]; 1.0 mg/ml peptide
  Thrombin Times (sec) at Peptide Concentrations (mg/ml): 68 s
[2]; 2.0 mg/ml peptide
  Thrombin Times (sec) at Peptide Concentrations (mg/ml): 135 s
[1]; 0.25 mg/ml, clotting mixture (a), 0.2 ml oxalated dog plasma, control 55 sec
  PRT (average): 77 s
[1]; 0.5 mg/ml, clotting mixture (a), 0.2 ml oxalated dog plasma, control 55 sec
  PRT (average): 100 s
[1]; 1.0 mg/ml, clotting mixture (a), 0.2 ml oxalated dog plasma, control 55 sec
  PRT (average): 198 s
[1]; 1.5 mg/ml, clotting mixture (a), 0.2 ml oxalated dog plasma, control 55 sec
  PRT (average): 246 s
[1]; 2 mg/ml, clotting mixture (a), 0.2 ml oxalated dog plasma, control 55 sec
  PRT (average): 296 s

## L-Prolyl-L-arginine Benzyl Ester p-Toluenesulfonate Trifluoroacetate [Example 2]
[2]; 0.125 mg/ml peptide
  Thrombin Times (sec) at Peptide Concentrations (mg/ml): 19 s
[2]; 0.25 mg/ml peptide
  Thrombin Times (sec) at Peptide Concentrations (mg/ml): 23 s
[2]; 0.5 mg/ml peptide
  Thrombin Times (sec) at Peptide Concentrations (mg/ml): 31 s
[2]; 1.0 mg/ml peptide
  Thrombin Times (sec) at Peptide Concentrations (mg/ml): 46 s
[2]; 2.0 mg/ml peptide
  Thrombin Times (sec) at Peptide Concentrations (mg/ml): 69 s
[1]; [3]
  PRT (average): 89 s
[1]; [4]
  PRT (average): 102 s
[1]; [5]
  PRT (average): 134 s
[1]; [6]
  PRT (average): 209 s

## CC(C)(C)OC(=O)N1CCC[C@H]1C(=O)N[C@@H](CCCNC(=N)N)C(=O)OCc1ccccc1.CO.Cc1ccc(S(=O)(=O)O)cc1 [Example 1, N-t-Butyloxycarbonyl-L-prolyl-L-arginine Benzyl Ester p-Toluenesulfonate Methanolate] (Boc-Pro-Arg-OBn)
[2]; 0.125 mg/ml peptide
  Thrombin Times (sec) at Peptide Concentrations (mg/ml): 40 s
[2]; 0.25 mg/ml peptide
  Thrombin Times (sec) at Peptide Concentrations (mg/ml): 44 s
[2]; 0.5 mg/ml peptide
  Thrombin Times (sec) at Peptide Concentrations (mg/ml): 73 s
[2]; 1.0 mg/ml peptide
  Thrombin Times (sec) at Peptide Concentrations (mg/ml): 91 s
[2]; 2.0 mg/ml peptide
  Thrombin Times (sec) at Peptide Concentrations (mg/ml): 159 s
[1]; [3]
  PRT (average): 128 s
[1]; [4]
  PRT (average): 160 s
[1]; [5]
  PRT (average): 207 s
[1]; [6]
  PRT (average): 229 s
[1]; 2 mg/ml, clotting mixture (a), 0.2 ml oxalated dog plasma, control 66 sec
  PRT (average): 250 s

## CC(C)(C)OC(=O)NCC(=O)N1CCC[C@H]1C(=O)N[C@@H](CCCNC(=N)N)C(=O)OCc1ccccc1.Cc1ccc(S(=O)(=O)O)cc1 [Example 3, N-t-Butyloxycarbonylglycyl-L-prolyl-L-arginine Benzyl Ester p-Toluenesulfonate] (Boc-Gly-Pro-Arg-OBn)
[2]; 0.125 mg/ml peptide
  Thrombin Times (sec) at Peptide Concentrations (mg/ml): 23 s
[2]; 0.25 mg/ml peptide
  Thrombin Times (sec) at Peptide Concentrations (mg/ml): 29 s
[2]; 0.5 mg/ml peptide
  Thrombin Times (sec) at Peptide Concentrations (mg/ml): 42 s
[2]; 1.0 mg/ml peptide
  Thrombin Times (sec) at Peptide Concentrations (mg/ml): 56 s
[2]; 2.0 mg/ml peptide
  Thrombin Times (sec) at Peptide Concentrations (mg/ml): 75 s
[1]; [3]
  PRT (average): 88 s
[1]; [4]
  PRT (average): 110 s
[1]; [5]
  PRT (average): 146 s
[1]; [6]
  PRT (average): 202 s
